Test results published in paper PMC7397748, “Unlabeled lysophosphatidic acid receptor binding in free solution as determined by a compensated interferometric reader” (Journal of Lipid Research, 2020).

Target: T1, lysophosphatidic acid receptor 1 (LPA1) (Homo sapiens, UniProt Q92633)
T1 construct: gene LPAR1; human LPA1 with N-terminal HA tag (HA-LPA1), in B103 cell membrane nanovesicles
Test: label-free free-solution assay with compensated interferometric reader (FSA-CIR), receptor nanovesicles, vector-subtracted
Assay type: binding
Settings: read-out: KD ± SEM

T1 sequence (Q92633 whole entry): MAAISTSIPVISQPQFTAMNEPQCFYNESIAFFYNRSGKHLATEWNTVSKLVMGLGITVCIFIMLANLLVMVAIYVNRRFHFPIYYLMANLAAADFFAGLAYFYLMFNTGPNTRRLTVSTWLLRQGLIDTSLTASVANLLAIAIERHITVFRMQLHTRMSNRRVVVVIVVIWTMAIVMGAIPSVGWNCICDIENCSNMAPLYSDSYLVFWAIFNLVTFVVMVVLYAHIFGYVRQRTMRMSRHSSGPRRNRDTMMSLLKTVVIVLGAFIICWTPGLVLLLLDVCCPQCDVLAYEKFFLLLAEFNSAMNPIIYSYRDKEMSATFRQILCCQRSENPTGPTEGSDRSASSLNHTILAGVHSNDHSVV

Structure (SMILES)	Kd [nM]
CCCCC/C=C\C/C=C\C/C=C\C/C=C\CCCC(=O)OC[C@@H](O)COP(=O)(O)O [20:4 LPA, 1-arachidonoyl-LPA]	2.59
CCCCCCCC/C=C\CCCCCCCC(=O)OC[C@@H](O)COP(=O)(O)O [18:1 LPA, 1-oleoyl-LPA]	2.08
CCCCCCCCCCCCCCCC(=O)OC[C@@H](O)COP(=O)(O)O [16:0 LPA, 1-palmitoyl-LPA]	1.69
